Measurements reported in the NIST ThermoML archive (doi:10.1021/je7002836).

Assays:
[1] = xn = mol fraction of the nth substance listed; details: 101 kPa, Liquid
[2] = molar heat capacity at constant pressure; xn = mol fraction of the nth substance listed; details: 101 kPa, Liquid

C[N+](=O)[O-] [nitromethane] + CCCC[n+]1cccc(C)c1.F[B-](F)(F)F
Details	mass density, [1] [kg/m3]	molar heat capacity at constant pressure, [2] [J/K/mol]
293.15 K, x2 = 0	1140.2	106.6
293.15 K, x2 = 0.0517	1153.4	120.3
293.15 K, x2 = 0.1038	1161.5	134.2
293.15 K, x2 = 0.1952	1170.3	159.9
293.15 K, x2 = 0.3078	1176.7	–
293.15 K, x2 = 0.3563	1178.7	205.2
293.15 K, x2 = 0.3998	1180.1	217.4
293.15 K, x2 = 0.5121	1183	249.2
293.15 K, x2 = 0.5994	1184.6	273.7
293.15 K, x2 = 0.6856	1185.8	297.7
293.15 K, x2 = 0.7863	1186.9	326.4
293.15 K, x2 = 0.8842	1187.7	353.6
293.15 K, x2 = 0.9034	1187.9	359.1
293.15 K, x2 = 0.941	1188.2	369.8
298.15 K, x2 = 0	1133.4	106.9
298.15 K, x2 = 0.0517	1147.4	120.5
298.15 K, x2 = 0.1038	1156	134.7
298.15 K, x2 = 0.1952	1165.4	160.4
298.15 K, x2 = 0.3078	1172.2	–
298.15 K, x2 = 0.3563	1174.3	206
298.15 K, x2 = 0.3998	1175.9	218.3
298.15 K, x2 = 0.5121	1179	250.2
298.15 K, x2 = 0.5994	1180.7	274.8
298.15 K, x2 = 0.6856	1182.1	299
298.15 K, x2 = 0.7863	1183.3	327.8
298.15 K, x2 = 0.8842	1184.2	355.3
298.15 K, x2 = 0.9034	1184.4	360.8
298.15 K, x2 = 0.941	1184.8	371.6
303.15 K, x2 = 0	1126.6	107.3
303.15 K, x2 = 0.0517	1141.3	120.9
303.15 K, x2 = 0.1038	1150.5	135.2
303.15 K, x2 = 0.1952	1160.4	161
303.15 K, x2 = 0.3078	1167.8	–
303.15 K, x2 = 0.3563	1170	206.9
303.15 K, x2 = 0.3998	1171.6	219.3
303.15 K, x2 = 0.5121	1175	251.4
303.15 K, x2 = 0.5994	1176.9	276.2
303.15 K, x2 = 0.6856	1178.3	300.6
303.15 K, x2 = 0.7863	1179.7	329.6
303.15 K, x2 = 0.8842	1180.7	357.3
303.15 K, x2 = 0.9034	1180.9	362.9
303.15 K, x2 = 0.941	1181.3	373.7
308.15 K, x2 = 0	1119.7	107.7
308.15 K, x2 = 0.0517	1135.3	121.3
308.15 K, x2 = 0.1038	1144.9	135.7
308.15 K, x2 = 0.1952	1155.5	161.8
308.15 K, x2 = 0.3078	1163.3	–
308.15 K, x2 = 0.3563	1165.7	208
308.15 K, x2 = 0.3998	1167.4	220.5
308.15 K, x2 = 0.5121	1171	252.8
308.15 K, x2 = 0.5994	1173.1	277.9
308.15 K, x2 = 0.6856	1174.6	302.5
308.15 K, x2 = 0.7863	1176.1	331.7
308.15 K, x2 = 0.8842	1177.2	359.7
308.15 K, x2 = 0.9034	1177.4	365.3
308.15 K, x2 = 0.941	1177.9	376.2
313.15 K, x2 = 0	1112.9	108.2
313.15 K, x2 = 0.0517	1129.2	121.9
313.15 K, x2 = 0.1038	1139.4	136.4
313.15 K, x2 = 0.1952	1150.6	162.5
313.15 K, x2 = 0.3078	1158.8	–
313.15 K, x2 = 0.3563	1161.4	209.2
313.15 K, x2 = 0.3998	1163.2	221.9
313.15 K, x2 = 0.5121	1167	254.4
313.15 K, x2 = 0.5994	1169.2	279.8
313.15 K, x2 = 0.6856	1170.9	304.6
313.15 K, x2 = 0.7863	1172.5	334.1
313.15 K, x2 = 0.8842	1173.7	362.4
313.15 K, x2 = 0.9034	1174	368.1
313.15 K, x2 = 0.941	1174.4	379
318.15 K, x2 = 0	1106	108.6
318.15 K, x2 = 0.0517	1123.1	122.4
318.15 K, x2 = 0.1038	1133.9	137.1
318.15 K, x2 = 0.1952	1145.6	163.5
318.15 K, x2 = 0.3078	1154.4	–
318.15 K, x2 = 0.3563	1157.1	210.6
318.15 K, x2 = 0.3998	1159.1	223.5
318.15 K, x2 = 0.5121	1163.1	256.3
318.15 K, x2 = 0.5994	1165.4	281.9
318.15 K, x2 = 0.6856	1167.2	307
318.15 K, x2 = 0.7863	1169	336.8
318.15 K, x2 = 0.8842	1170.3	365.5
318.15 K, x2 = 0.9034	1170.5	371.1
318.15 K, x2 = 0.941	1171	382.3
